# Results as given in ChEMBL document CHEMBL1201862, “PubChem BioAssay data set” (2004).
#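 96-well plates; 48 h exposure; 5 concentrations. Endpoints by linear interpolation between flanking doses. Not reached: highest tested concentration assigned. The concentration for 50% growth inhibition is given as GI50.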 Activity calls are given as the source filed them. Rule as the data show it: active = GI50 up to about 1.1 µM and inactive = higher.
# How the values were obtained:
# Experiment in all cases: NCI-60 cell line screen, 48 h
# SW-620 = test system: SW-620
# SNB-75 = test system: SNB-75
# NCI-H226 = test system: NCI-H226
# MOLT-4 = test system: MOLT-4
# HCT-15 = test system: HCT-15
# OVCAR-4 = test system: OVCAR-4
# RPMI-8226 = test system: RPMI-8226
# COLO 205 = test system: COLO 205
# MDA-MB-435 = test system: MDA-MB-435
# NCI/ADR-RES = test system: NCI/ADR-RES
# TK-10 = test system: TK-10
# HCC 2998 = test system: HCC 2998
# DU-145 = test system: DU-145
# OVCAR-5 = test system: OVCAR-5
# M14 = test system: M14
# SR = test system: SR
# UO-31 = test system: UO-31
# MDA-N = test system: MDA-N
# T47D = test system: T47D
# MDA-MB-231 = test system: MDA-MB-231
SMILES,GI50 (SW-620),GI50 (SNB-75),GI50 (NCI-H226),GI50 (MOLT-4),GI50 (HCT-15) [µM],GI50 (OVCAR-4),GI50 (RPMI-8226),GI50 (COLO 205),GI50 (MDA-MB-435),GI50 (NCI/ADR-RES),GI50 (TK-10),GI50 (HCC 2998),GI50 (DU-145),GI50 (OVCAR-5),GI50 (M14),GI50 (SR),GI50 (UO-31),GI50 (MDA-N),GI50 (T47D),GI50 (MDA-MB-231)
NCC(O)CN.Oc1c(Cl)c(Cl)c(Cl)c(Cl)c1Cl,25.2 µM (inactive),22.1 µM (inactive),18 µM (inactive),19.7 µM (inactive),18.2,35.9 µM (inactive),22.8 µM (inactive),21 µM (inactive),34.4 µM (inactive),18.1 µM (inactive),24.5 µM (inactive),17.9 µM (inactive),31.6 µM (inactive),18 µM (inactive),19.7 µM (inactive),25.5 µM (inactive),16.5 µM (inactive),24.4 µM (inactive),22.5 µM (inactive),20.2 µM (inactive)
O=C1NC2C(=CC(O)C(O)C2O)c2cc3c(cc21)OCO3 (stereo not given),0.335 µM (active),0.568 µM (active),0.504 µM (active),0.109 µM (active),0.52,0.338 µM (active),0.414 µM (active),0.2 µM (active),0.0951 µM (active),0.621 µM (active),0.418 µM (active),0.415 µM (active),0.056 µM (active),0.94 µM (active),0.244 µM (active),0.109 µM (active),0.564 µM (active),0.0832 µM (active),0.0964 µM (active),0.0486 µM (active)
Cc1cccc(C(=O)O)c1CC1NCCC2c3ccccc3NC12 (stereo not given),> 100 µM (inactive),> 100 µM (inactive),> 100 µM (inactive),> 100 µM (inactive),> 100,> 100 µM (inactive),> 100 µM (inactive),> 100 µM (inactive),> 100 µM (inactive),> 100 µM (inactive),> 100 µM (inactive),> 100 µM (inactive),> 100 µM (inactive),> 100 µM (inactive),> 100 µM (inactive),> 100 µM (inactive),> 100 µM (inactive),> 100 µM (inactive),> 100 µM (inactive),> 100 µM (inactive)
COc1cc(NCc2ccc3oc(=O)c(-c4ccccc4)nc3c2)cc(OC)c1OC,> 10 µM (inactive),> 10 µM (inactive),> 10 µM (inactive),> 10 µM (inactive),> 10,> 10 µM (inactive),> 10 µM (inactive),> 10 µM (inactive),> 10 µM (inactive),> 10 µM (inactive),> 10 µM (inactive),> 10 µM (inactive),> 10 µM (inactive),> 10 µM (inactive),> 10 µM (inactive),> 10 µM (inactive),> 10 µM (inactive),> 10 µM (inactive),> 10 µM (inactive),> 10 µM (inactive)
CC(C)[Si]1(C(C)C)OCC2OC(n3c(C(=O)c4ccccc4)cc(=O)[nH]c3=O)CC2O[Si](C(C)C)(C(C)C)O1 (stereo not given),2.81 µM (inactive),3.02 µM (inactive),2.94 µM (inactive),1.88 µM (inactive),2.72,2.93 µM (inactive),2.85 µM (inactive),3.72 µM (inactive),3.1 µM (inactive),10.2 µM (inactive),3.24 µM (inactive),1.65 µM (inactive),11.6 µM (inactive),3.4 µM (inactive),3.66 µM (inactive),2.61 µM (inactive),2.47 µM (inactive),3.2 µM (inactive),4.36 µM (inactive),2.37 µM (inactive)
COc1cc(C[C@H]2C(=O)OC[C@@H]2Cc2ccc(OC)c(OC)c2)cc(OC)c1,70.6 µM (inactive),40.6 µM (inactive),> 100 µM (inactive),27.2 µM (inactive),53.3,29.7 µM (inactive),52.7 µM (inactive),89.3 µM (inactive),55.7 µM (inactive),32.1 µM (inactive),> 100 µM (inactive),> 100 µM (inactive),> 100 µM (inactive),> 100 µM (inactive),93.8 µM (inactive),30.5 µM (inactive),39.6 µM (inactive),58.5 µM (inactive),35.2 µM (inactive),93.3 µM (inactive)
CN=C(n1ccnc1)n1ccnc1,> 100 µM (inactive),> 100 µM (inactive),> 100 µM (inactive),> 100 µM (inactive),> 100,> 100 µM (inactive),> 100 µM (inactive),> 100 µM (inactive),> 100 µM (inactive),> 100 µM (inactive),> 100 µM (inactive),> 100 µM (inactive),> 100 µM (inactive),> 100 µM (inactive),> 100 µM (inactive),> 100 µM (inactive),> 100 µM (inactive),> 100 µM (inactive),> 100 µM (inactive),> 100 µM (inactive)
CC1(C)CC(C#Cc2ccccc2)CC(C)(C)N1O,19.6 µM (inactive),16.9 µM (inactive),20.9 µM (inactive),46 µM (inactive),14.9,43.4 µM (inactive),5.18 µM (inactive),20.6 µM (inactive),21.6 µM (inactive),23.9 µM (inactive),20.4 µM (inactive),16.3 µM (inactive),16.1 µM (inactive),22.1 µM (inactive),19.1 µM (inactive),52.7 µM (inactive),12.2 µM (inactive),15.8 µM (inactive),16 µM (inactive),15.2 µM (inactive)
CCOc1cc(NC(C)=O)ccc1C(=O)NN1C(=O)C(Cl)C1c1ccc(O)c(OC)c1 (stereo not given),21.4 µM (inactive),11.8 µM (inactive),10.2 µM (inactive),5.3 µM (inactive),14.2,12.8 µM (inactive),17.3 µM (inactive),15.6 µM (inactive),12.6 µM (inactive),20.4 µM (inactive),3.08 µM (inactive),17.2 µM (inactive),15.6 µM (inactive),19.1 µM (inactive),11.8 µM (inactive),4.52 µM (inactive),2.43 µM (inactive),14.2 µM (inactive),12.2 µM (inactive),13.3 µM (inactive)
Cc1ccc2c(c1)CC1(Cc3c(C)cccc3C1=O)C2=O (stereo not given),> 100 µM (inactive),36.7 µM (inactive),> 100 µM (inactive),> 100 µM (inactive),> 100,> 100 µM (inactive),> 100 µM (inactive),> 100 µM (inactive),> 100 µM (inactive),> 100 µM (inactive),> 100 µM (inactive),> 100 µM (inactive),> 100 µM (inactive),> 100 µM (inactive),> 100 µM (inactive),> 100 µM (inactive),> 100 µM (inactive),> 100 µM (inactive),> 100 µM (inactive),> 100 µM (inactive)
CC(=O)N1C2=CCCC2(C)c2ccccc21 (stereo not given),> 100 µM (inactive),38.3 µM (inactive),> 100 µM (inactive),62.8 µM (inactive),> 100,77.6 µM (inactive),10.7 µM (inactive),57.9 µM (inactive),> 100 µM (inactive),57.5 µM (inactive),> 100 µM (inactive),26.5 µM (inactive),> 100 µM (inactive),> 100 µM (inactive),> 100 µM (inactive),> 100 µM (inactive),57.5 µM (inactive),> 100 µM (inactive),79.3 µM (inactive),> 100 µM (inactive)
Cc1n[nH]c(=O)n1/N=C\CC/C=N\n1c(C)n[nH]c1=O,> 100 µM (inactive),> 100 µM (inactive),> 100 µM (inactive),> 100 µM (inactive),> 100,> 100 µM (inactive),> 100 µM (inactive),> 100 µM (inactive),> 100 µM (inactive),> 100 µM (inactive),> 100 µM (inactive),> 100 µM (inactive),> 100 µM (inactive),> 100 µM (inactive),> 100 µM (inactive),> 100 µM (inactive),> 100 µM (inactive),> 100 µM (inactive),> 100 µM (inactive),> 100 µM (inactive)
CCCN1C(=O)CCC2=C1CCc1c2ccc(Cl)c1Cl,48.4 µM (inactive),15.2 µM (inactive),60.5 µM (inactive),26.2 µM (inactive),50.6,26.2 µM (inactive),28.8 µM (inactive),51.9 µM (inactive),57.9 µM (inactive),33.8 µM (inactive),11.9 µM (inactive),21.3 µM (inactive),5.19 µM (inactive),8.41 µM (inactive),31.9 µM (inactive),31.8 µM (inactive),53 µM (inactive),46 µM (inactive),36.7 µM (inactive),16.8 µM (inactive)
COc1nc(N=P(c2ccccc2)(c2ccccc2)c2ccccc2)cc(=O)[nH]1,> 100 µM (inactive),> 100 µM (inactive),> 100 µM (inactive),> 100 µM (inactive),> 100,> 100 µM (inactive),> 100 µM (inactive),> 100 µM (inactive),> 100 µM (inactive),> 100 µM (inactive),> 100 µM (inactive),> 100 µM (inactive),> 100 µM (inactive),> 100 µM (inactive),> 100 µM (inactive),> 100 µM (inactive),> 100 µM (inactive),> 100 µM (inactive),> 100 µM (inactive),> 100 µM (inactive)
